In patent US9006487B2, “Amine-containing lipids and uses thereof” (Massachusetts Institute of Technology, priority 2005, dated 2015):
Values joined by “and” are separate entries in the source; they are usually repeats but may differ in a detail not shown here. Identical values can stand only once.

Test system: cos-7 cells
Assay: DNA transfection: luciferase expression relative to Lipofectamine 2000
Format: cell-based
Details: for Luciferase expression as a percentage of that achieved using Lipofectamine 2000: 300 ng Luciferase DNA per well
Outline: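 Lipid/DNA complexes, 300 ng luciferase DNA per well at 2.5-25 w/w lipid:DNA, were formed in sodium acetate/Optimem and added to overnight-seeded cos-7 cells. Luciferase was measured by Bright-Glo luminescence after 48 hours and quantified against an enzyme standard curve. Values are expressed as % of Lipofectamine 2000 at 2.5 w/w.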

[1] = lipid/DNA 2.5 w/w, luciferase assay after 48 hours
[2] = lipid/DNA 5 w/w, luciferase assay after 48 hours
[3] = lipid/DNA 10 w/w, luciferase assay after 48 hours
[4] = lipid/DNA 15 w/w, luciferase assay after 48 hours
[5] = lipid/DNA 20 w/w, luciferase assay after 48 hours
[6] = lipid/DNA 25 w/w, luciferase assay after 48 hours
[7] = lipid/DNA 2.5 w/w, 72 hours incubation before bright-glo
[8] = lipid/DNA 5 w/w, 72 hours incubation before bright-glo
[9] = lipid/DNA 10 w/w, 72 hours incubation before bright-glo
[10] = lipid/DNA 15 w/w, 72 hours incubation before bright-glo
[11] = lipid/DNA 20 w/w, 72 hours incubation before bright-glo
[12] = lipid/DNA 25 w/w, 72 hours incubation before bright-glo

Row | SMILES | Luciferase expression as a percentage of that achieved using Lipofectamine 2000 [1] | Luciferase expression as a percentage of that achieved using Lipofectamine 2000 [2] [%] | Luciferase expression as a percentage of that achieved using Lipofectamine 2000 [3] [%] | Luciferase expression as a percentage of that achieved using Lipofectamine 2000 [4] | Luciferase expression as a percentage of that achieved using Lipofectamine 2000 [5] | Luciferase expression as a percentage of that achieved using Lipofectamine 2000 [6] | further results
1 | CCCCCCCCCCCCCCOC(=O)CCN(CCCn1ccnc1)CCC(=O)OCCCCCCCCCCCCCC [LF93] | 32.0% | 50.4 | 15.0 | 150.7% | 143.2% | 171.3% | luciferase expression (second part of table, values relative to LIPO2000) (lipid/DNA 2.5 w/w, 300 ng of DNA per well): 32.0; luciferase expression (second part of table, values relative to LIPO2000) (lipid/DNA 5 w/w, 300 ng of DNA per well): 50.4; luciferase expression (second part of table, values relative to LIPO2000) (lipid/DNA 10 w/w, 300 ng of DNA per well): 15.0; luciferase expression (second part of table, values relative to LIPO2000) (lipid/DNA 15 w/w, 300 ng of DNA per well): 150.7; luciferase expression (second part of table, values relative to LIPO2000) (lipid/DNA 20 w/w, 300 ng of DNA per well): 143.2; luciferase expression (second part of table, values relative to LIPO2000) (lipid/DNA 25 w/w, 300 ng of DNA per well): 171.3
2 | CCCCCCCCCCOC(=O)CCN(CCCOC)CCC(=O)OCCCCCCCCCC [LB1] | 0.1% | 0.1 | 0.1 | 0.1% | 0.1% | 0.2% | 
3 | CCCCCCCCCCCCOC(=O)CCN(CCC(=O)OCCCCCCCCCCCC)CCN1CCOCC1 [LD90] | 0.5% and 0.4% | 0.4 | 0.4 | 0.6% and 0.4% | 0.4% and 0.5% | 0.4% and 0.5% | 
4 | CCCCCCCCCCCCCCCOC(=O)CCN(CCCOC)CCC(=O)OCCCCCCCCCCCCCCC [LG1] | 0.0% | 0.0 | 0.0 | 0.0% | 0.0% | 0.0% | 
5 | CCCCCCCCCCCCCCOC(=O)CCN(CCCN(C)C)CCC(=O)OCCCCCCCCCCCCCC [LF80] | 2.5% | 35.1 | 35.5 | 34.3% | 19.9% | 14.8% | 
6 | CCCCCCCCCCCCCCOC(=O)CCN(CC)CCN(CC)CCC(=O)OCCCCCCCCCCCCCC [LF61] | 0.1% | 0.1 | 0.1 | 0.1% | 0.1% | 0.1% | 
7 | CCCCCCCCCCCCCCOC(=O)CCN(CCC(=O)OCCCCCCCCCCCCCC)CCC1CCCN1C (stereo not drawn) [LF77] | 3.7% | 25.1 | 28.2 | 24.1% | 17.0% | 22.1% | 
8 | CCCCCCCCCCCCCCOC(=O)CCN(CCC(=O)OCCCCCCCCCCCCCC)C[C@H](C)O [LF22] | 0.1% | 0.1 | 0.1 | 0.1% | 0.1% | 0.1% | 
9 | CCCCCCCCCCCCCCCOC(=O)CCN(CCCn1ccnc1)CCC(=O)OCCCCCCCCCCCCCCC [LG93] | 3.6% | 9.2 | 19.8 | 37.3% | 24.0% | 24.6% | Luciferase expression as a percentage of that achieved using Lipofectamine 2000 [7]: 45.0%; luciferase expression (second part of table, values relative to LIPO2000) [7]: 45.0; Luciferase expression as a percentage of that achieved using Lipofectamine 2000 [8]: 43.8%; luciferase expression (second part of table, values relative to LIPO2000) [8]: 43.8; Luciferase expression as a percentage of that achieved using Lipofectamine 2000 [9]: 310.5%; luciferase expression (second part of table, values relative to LIPO2000) [9]: 310.5; Luciferase expression as a percentage of that achieved using Lipofectamine 2000 [10]: 281.8%; luciferase expression (second part of table, values relative to LIPO2000) [10]: 281.8; Luciferase expression as a percentage of that achieved using Lipofectamine 2000 [11]: 185.9%; luciferase expression (second part of table, values relative to LIPO2000) [11]: 185.9; Luciferase expression as a percentage of that achieved using Lipofectamine 2000 [12]: 183.8%; luciferase expression (second part of table, values relative to LIPO2000) [12]: 183.8
10 | CCCCCCCCCCOC(=O)CCN(CCCCCO)CCC(=O)OCCCCCCCCCC [LB32] | 0.1% | 0.1 | 0.1 | 0.1% | 0.1% | 0.1% | 
11 | CCCCCCCCCCCCCCCCCCOC(=O)CCN(CCCOC)CCC(=O)OCCCCCCCCCCCCCCCCCC [LH1] | 0.0% | 0.0 | 0.0 | 0.0% | 0.0% | 0.0% | 
12 | CCCCCCCCCCCCCCCOC(=O)CCN(CCCN1CCOCC1)CCC(=O)OCCCCCCCCCCCCCCC [LG91] | 0.2% | 0.2 | 0.1 | 0.2% | 0.1% | 0.1% | 
13 | CCCCCCCCCCOC(=O)CCN(CCC(=O)OCCCCCCCCCC)CCc1ccc(OC)c(OC)c1 [LB17] | 0.1% | 0.1 | 0.1 | 0.1% | 0.1% | 0.1% | 
14 | CCCCCCCCCCOC(=O)CCN(CCC(=O)OCCCCCCCCCC)CCN(CC)CC [LB75] | 0.1% | 0.1 | 0.1 | 0.1% | 0.1% | 0.1% | 
15 | CCCCCCCCCCCCCCOC(=O)CCN(CCCOC)CCC(=O)OCCCCCCCCCCCCCC [LF1] | 0.1% | 0.1 | 0.0 | 0.0% | 0.1% | 0.1% | 
16 | CCCCCCCCCCCCCCOC(=O)CCN(CCC(=O)OCCCCCCCCCCCCCC)CCc1ccc(OC)c(OC)c1 [LF17] | 0.1% | 0.1 | 0.1 | 0.1% | 0.1% | 0.1% | 
17 | CCCCCCCCCCOC(=O)CCN(CCC(=O)OCCCCCCCCCC)C(C)CN(C)C (stereo not drawn) [LB79] | 0.1% | 0.1 | 0.1 | 0.1% | 0.1% | 0.1% | 
